Reference: US20040022788A1, “Compositions and methods for promoting or inhibiting angiogenesis” (priority 1998, published 2004)
“Also recorded” adds a separate entry of the source.

Columns and labels:
[1] = tested on: HUVEC; test: Direct binding of 125I-labeled plasminogen or angiostatin to endothelial cells, Scatchard analysis; set-up: species or system human; conditions: 125I-labeled ligand, 1 h at 4° C., read-out: apparent dissociation constant (Kd)
Method: FIGS. 1A and 1B. Direct binding assay and Scatchard analysis of plasminogen and angiostatin with endothelial cells. HUVEC were plated at a density of 10,000 cells/well and incubated with increasing concentrations of ^125I-labeled-plasminogen or angiostatin. FIG. 1A. ^125I-labeled plasminogen binding was concentration-dependent and saturable with an apparent dissociation constant ([…]) of 158 nM and 870,000 sites/cell. FIG. 1B. […] Error bars represent standard deviation.
(§1) Binding Assays. Ligands were radioiodinated by using Iodobeads (Pierce), repurified on L-lysine-Sepharose, eluted with 100 mM ε-aminocaproic acid, and dialyzed in PBS, pH 7.0 before use in binding assays. HUVEC were plated at a density of 5,000 or 10,000 cells/well and incubated with increasing concentrations of ^125I-labeled ligand in media containing 1% BSA for 1 h at 4° C. in 96-well plates. Wells were washed, and remaining bound radioactivity was quantified by using an LKB 1272 γ-radiation counter. Nonspecific binding was measured in the presence of excess unlabeled ligand.

[2] = tested on: HUVEC; test: HUVEC cell proliferation assay (CyQUANT); type: cell-based, human; conditions: 1 μM; 24 hrs; n = 3
Method: Cell Proliferation Assay. HUVEC were plated at a density of 5000 cells/well in media depleted of fetal calf serum (FCS) overnight to allow the cells to become quiescent. Fresh media containing 5% FCS, 10 ng/ml basic fibroblast growth factor (bFGF) and 3 ng/ml vascular endothelial growth factor (VEGF) were added to the wells along with angiostatin (1.0 μM), antibody directed against the recombinant human alpha-subunit of ATP synthase (1:10 dil), antibody directed against the recombinant human beta-subunit of ATP synthase (1:10 dil), pre-immune serum (1:10 dil) or cycloheximide ([…]). Cell density was measured after 24 hrs using CyQUANT Cell Proliferation Assay Kit (Molecular Probes) in a fluorometric plate reader (Molecular Devices). The absorbance values used to calculate the percent proliferation of the cells ranged from 1.24 or 1.00 for treated and 2.57 for untreated.

[3] = tested on: plasminogen binding sites on HUVEC; test: Competition binding assay, 125I-labeled plasminogen on HUVEC; set-up: species or system human; conditions: 1.0 μM 125I-labeled plasminogen; 100-fold molar excess of unlabeled angiostatin
Method: FIG. 2. Competition binding assay between plasminogen and angiostatin. HUVEC were plated at a density of 10,000 cells/well and incubated with 1.0 μM ^125I-labeled plasminogen in the presence of 100-fold molar excess of unlabeled angiostatin for 1 h at 4° C. Cells were washed and the remaining radioactivity was quantified by γ-counting.
as §1

[4] = target: T1, purified bovine F1 ATP synthase (Bos taurus, UniProt P00829+P19483); test: F1 activity assay (ATPase, coupled NADH oxidation at 340 nm); type: biochemical; conditions: angiostatin
T1 construct: from tissue; host or cells: bovine heart mitochondria
Method: FIG. 12 is a bar graph showing the inhibition of purified F1 ATP synthase by angiostatin. Purified F1 ATP synthase activity was measured spectrophotometrically at λ=340 nm by coupling the production of ADP to the oxidation of NADH via the pyruvate kinase and lactate dehydrogenase reaction in which a decrease in the absorbance at λ=340 nm indicates active protein (dark six membered rings). […] Control antibodies had no effect on activity (light circles and squares). Representative data shown, n=3.
Purification of Bovine Heart F1 ATP Synthase and F1 Activity Assay. Fresh bovine heart mitochondria were obtained as previously described (23) and sonicated to yield sub-mitochondrial particles (24). The F1 portion was separated from membrane-bound FO by chloroform extraction. The aqueous layer was centrifuged at 105,000×g to remove particulate matter before purifying over an S300 gel filtration column. […] ATPase activity was measured spectrophotometrically by monitoring at λ=340 nm by coupling the production of ADP to the oxidation of NADH via pyruvate kinase and lactate dehydrogenase reactions as described in Zheng,& Ramirez, Biochem Biophys Res Commun 261(25):499-503 (1999).

[5] = target: T2, ATP synthase on the surface of HUVEC (Homo sapiens, UniProt P05496+P06576+P25705); test: Cell-surface ATP generation by bioluminescent luciferase assay; type: cell-based
T2 construct: endogenous in cells; host or cells: HUVEC (primary human umbilical vein endothelial cells)
Method: Cell-surface ATP Assay. […] Cells were treated with (1 μM) angiostatin or (0.1 mg/mL) oligomycin for 1 hr at 37° C. All cells were then incubated with 0.1 Ci ^32P and 0.1 Ci ([…]) [2,8-^3H]-ADP (NEN Life Sciences) for 1 min. Supernatants were removed and centrifuged before assaying for ATP production by thin layer chromatography (TLC) or by firefly luciferase assay. ATP Generation by Bioluminescent Luciferase Assay. […] Louis, Mo.). In this firefly luciferin-luciferase reaction, only ATP is readily detected since the enzymatic reaction of firefly luciferase to oxidize luciferin is specific for ATP relative to all other nucleotides. Samples were injected with the ATP assay mixture and recordings were made in a LuminoskanRS (LabSystems, Franklin, Mass.) over a 10 s period. The response in a given sample or standard was quantified as area under the peak of the response and averaged for duplicate determinations. Data are expressed as picomoles of ATP produced per cell based on standards determined under the same conditions with each experiment. Angiostatin was prepared as described in Sottrup-Jensen, […]., Petersen, T. E. & Magnusson, S. (1978) Progress in Chemical Fibrinolysis and Thrombolysis (Raven Press, New York).

[6] = tested on: HUVEC; test: HUVEC proliferation assay (MTS/PMS); type: cell-based, human; conditions: for Percent proliferation inhibited, ±SEM, Without Antibody: 24 h
Method: Proliferation Assay. HUVEC were plated at a density of 5,000 cells/well in media depleted of FCS overnight to allow the cells to become quiescent. […] In some experiments antibody directed against the alpha subunit of ATP synthase derived from E. coli was also added at a dilution of 1:10. MTS/PMS [(3-(4,5-dimethylthiazol-2-yl)-5-(3-carboxymethoxyphenyl)-2-(4-sulfophenyl)-2H-tetrazolium inner salt/phenazine methosulfate] solution was added after 24 h, and the absorbance of formazan was quantitated on a Thermomax plate reader at a wavelength of 490 nm according to the manufacturer's specifications (Promega). The absorbance values used to calculate the percent proliferation of the cells ranged from 0.81 for untreated, 0.60 for treated, and 0.47 for baseline quiescent cells.
Anti-alpha-subunit ATP synthase antibody derived from E. coli was added concomitantly at a dilution of 1:10. MTS/PMS solution was added and absorbance of formazan was quantitated according to the manufacturer's specifications. Results represent three separate experiments performed in duplicate with SEM. Percent recovery represents the ability of the anti-alpha-subunit ATP synthase antibody to block the antiproliferative effect of angiostatin, and thereby restore proliferation to an average of 81% of that obtained with the control cells.

angiostatin
Kd [1]: 245 nM | Percent Inhibition (+/− S.E.M.) of HUVEC proliferation [2]: 57.2 +/− 1.16% | inhibition of 125I-labeled plasminogen binding [3]: unaffected; also recorded: no inhibition; also recorded: not inhibited | inhibition of purified F1 ATPase activity [4]: completely inhibited | Percent Inhibition (+/− S.E.M.) of ATP generation ([5]; 1 μM, 50 μM ADP): 81% | inhibition of ATP generation with increasing concentrations ([5]; increasing concentrations of angiostatin): dose-dependent manner | Percent proliferation inhibited, ±SEM, With antibody ([6]; angiostatin 0.5 μM plus anti-alpha subunit ATP synthase antibody 1:10): 1 ± 0.2% | Percent proliferation inhibited, ±SEM, Without Antibody ([6]; angiostatin 0.5 μM): 10 ± 1.4% | Percent proliferation inhibited, ±SEM, With antibody ([6]; angiostatin 0.75 μM plus anti-alpha subunit ATP synthase antibody 1:10): 5 ± 4.1% | Percent proliferation inhibited, ±SEM, Without Antibody ([6]; angiostatin 0.75 μM): 25 ± 4.2% | Percent proliferation inhibited, ±SEM, With antibody ([6]; angiostatin 1.0 μM plus anti-alpha subunit ATP synthase antibody 1:10): 6 ± 0.8% | Percent proliferation inhibited, ±SEM, Without Antibody ([6]; angiostatin 1.0 μM): 23 ± 9.0%
